Results on one compound are retold here after article PMC10575836, “Elevated acetate kinase (ackA) gene expression, activity, and biofilm formation observed in methicillin-resistant strains of Staphylococcus aureus (MRSA)” (Journal of Genetic Engineering & Biotechnology, 2023).

The assay addresses T1, recombinant ackA (S. aureus ATCC12600 acetate kinase) (Staphylococcus aureus, UniProt Q8NW53).
T1 construct: full-length, His-6 tag from pQE 30 (Sal I/Hind III), clone PSackA, expressed in E. coli DH5alpha, nickel column, 44 kDa on SDS-PAGE
T1 sequence (Q8NW53 1-400): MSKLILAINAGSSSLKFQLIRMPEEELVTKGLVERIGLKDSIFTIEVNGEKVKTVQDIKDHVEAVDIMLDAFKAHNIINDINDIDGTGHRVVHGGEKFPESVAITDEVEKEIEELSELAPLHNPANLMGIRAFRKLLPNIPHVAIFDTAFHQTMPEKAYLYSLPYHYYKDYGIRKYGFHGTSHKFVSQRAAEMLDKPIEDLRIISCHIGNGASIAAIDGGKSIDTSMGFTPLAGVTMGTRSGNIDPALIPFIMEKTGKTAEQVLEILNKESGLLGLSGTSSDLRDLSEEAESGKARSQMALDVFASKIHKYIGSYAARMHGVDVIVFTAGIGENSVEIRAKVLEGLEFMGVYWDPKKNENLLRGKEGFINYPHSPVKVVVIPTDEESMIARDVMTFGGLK
Put plainly: coupled pyruvate kinase / lactate dehydrogenase assay, NADH at […] nm. It counts as biochemical. The conditions noted are these: 2 mM potassium acetate, 1.5 mM ATP, 2 mM MgCl2, 100 mM Tris-HCl pH 7.3.

`CC(=O)O` [potassium acetate]: the “coupled pyruvate kinase / lactate dehydrogenase assay, NADH at 340 nm” value is listed as “Assays were initiated by the addition of either the cytosolic fraction or pure recombinant ackA”.
